Test results as given in patent US20260216166A1, “COMPOUND FOR TREATMENT OF ERECTILE DYSFUNCTION” (Initiator Pharma A/S, priority 2023, published 2026).
Entries after “also recorded” stand apart in the source; their conditions may differ.

Experiments:
sperm count and motility = assay: Semen analysis after repeat single oral doses in male subjects with ED; format: in vivo, human; conditions: 5 mg or 10 mg, four weekly doses; Day -7 versus Week 4
Protocol: (§1) On Day-7, and at the Week 1 (Day 1), Week 2, Week 3, Week 4 and Follow-up visits, all groups were asked to complete the IIEF-15 questionnaire. Group 2 was asked to complete a Visual Stimulation Assessment using a RigiScan Plus Monitor on Day-7, Week 1 (Day 1) and Week 4. Group 2 was also required to provide blood samples for pharmacokinetic assessment on Week 1 (Day 1) and Week 4. Group 3 was required to provide semen samples on Day-7 and Week 4.
(§2) Efficacy was assessed through the International Index of Erectile Function (IIEF)-15 questionnaire. The change from baseline in responses to questions of the IIEF-15 questionnaire, including questions regarding erectile function, orgasmic function, sexual desire, intercourse satisfaction and overall satisfaction domain scores, was determined at different time points of the study. RigiScan assessments during the stimulus assessment, and sperm count and motility by semen sample collection was used for efficacy evaluation. Safety was assessed through AE reporting, 12-lead ECG, vital signs, physical examinations and clinical laboratory evaluations. Pharmacokinetics was assessed by blood sampling.

[1] = system: male subjects with erectile dysfunction (ED); assay: IIEF-15 questionnaire after repeat single oral doses in male subjects with ED; format: in vivo, human
Excerpt: The international index of erectile function (IIEF-15) questionnaire is a validated, multi-dimensional, self-administered investigation that has been found useful in the clinical assessment of erectile dysfunction and treatment outcomes in clinical trials. A score of 0-5 is awarded to each of the 15 questions that examine the main domains of male sexual function: erectile function, orgasmic function, sexual desire and intercourse satisfaction.
130 subjects were divided into 3 groups upon which the study was conducted in parallel. Each subject was dosed on four occasions with either 5 mg IP2015, 10 mg IP2015 or matched placebo. In each group, subjects were randomised evenly to each of the three study treatments and received the same treatment at each visit.
The study lasted approximately 8 weeks and consisted of the following: • A screening visit (up to 21 days prior to the baseline visit) • A baseline visit (Day −7). • Outpatient visits on Week 1 (Day 1), Week 2, Week 3 and Week 4 • A follow-up visit a minimum of 7 to 10 days after their final dose.
as §1
There were three potential study treatments of 5 mg IP2015, 10 mg IP2015 or matched placebo. In each group, subjects were randomised evenly to each of the three study treatments and received the same treatment on each visit. IP2015 or matched placebo was administered once in the morning of Week 1 (Day 1), Week 2, Week 3, and Week 4 as an oral solution in the fasted state. The dose was taken with 240 ml of water at room temperature. Subjects had fasted 2 hours prior to dosing until 4 hours postdose. Water was allowed ad libitum except for 1 hour before and 1 hour after dosing.
as §2
The results are means±SE. The statistical differences were performed with Mixed Model Repeated Measures (MMRM).

COc1cc2ccc(OC3CC4CCC(C3)N4)cc2oc1=O (centres unmarked) [IP2015, 7-[(8-azabicyclo[3.2.1]octan-3-yl)oxy]-3-methoxy-chromen-2-one]
sperm count, motility, or morphology (sperm count and motility): did not have negative effects on sperm count, motility, or morphology | efficacy in treating erectile dysfunction ([1]; 5 mg individual doses, human subjects, compared to placebo): effective in the treatment of erectile dysfunction; also recorded: effective in treating erectile dysfunction | overall response to questions of IIEF-15 versus baseline ([1]; 5 mg, at follow-up, p=0.0046): significant | overall response to questions of IIEF-15 versus placebo ([1]; 5 mg, at follow-up, p=0.07): tendency | IIEF-15 overall score versus baseline ([1]; 5 mg, p=0.0032): the same was the case | IIEF-15 Q4 (ability to maintain erection), overall score versus baseline ([1]; 5 mg, p=0.056): tendency to difference | IIEF-15 overall score versus placebo ([1]; 5 mg, p=0.10): tendency | IIEF-15 Q4, overall score compared to placebo ([1]; 5 mg, p=0.44): no difference | IIEF-15 Q3, overall score ([1]; 5 mg, versus placebo (p=0.07) and versus baseline (p=0.07)): tendency to difference | IIEF-15 Q3 (ability to penetrate), change from baseline ([1]; 5 mg, week 3, versus placebo (p=0.034) and versus baseline (p=0.046)): significant effect | overall IIEF-15 score change ([1]; low dose of IP2015, clinically significant): 2
